From PubChem BioAssay (NCI)
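How tested: cells in 96-well plates exposed to compound for 48 hours at five concentrations. The concentration for 50% growth inhibition is given as GI50. At the TGI there is no net growth.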

Key:
Assay in all cases: NCI anticancer screen, dose series, 48 h
[1] = system: SF-295 CNS
[2] = system: ACHN renal
[3] = system: MDA-MB-435
[4] = system: OVCAR-3 ovarian
[5] = system: OVCAR-8 ovarian
[6] = system: COLO 205 colon
[7] = system: SK-MEL-2 melanoma
[8] = system: UACC-62 melanoma
[9] = system: HCT-116 colon
[10] = system: 786-0 renal
[11] = system: RXF 393 renal
[12] = system: PC-3 prostate
[13] = system: CCRF-CEM leukemia
[14] = system: A549 NSCLC
[15] = system: U251 CNS
[16] = system: HL-60(TB) leukemia
[17] = system: MDA-MB-468 breast
[18] = system: SNB-75 CNS
[19] = system: UACC-257 melanoma
[20] = system: NCI-H522 lung
[21] = system: OVCAR-4 ovarian
[22] = system: MOLT-4 leukemia
[23] = system: IGROV1 ovarian
[24] = system: RPMI-8226 leukemia
[25] = system: MCF7 breast
[26] = system: SR leukemia
[27] = system: MALME-3M melanoma
[28] = system: BT-549 breast
[29] = system: LOX IMVI melanoma
[30] = system: HOP-62 NSCLC

## CCCCCc1ccc(S(=O)(=O)N(C(C)=O)c2cc(-c3csc(N(C)C(C)=O)n3)ccc2N2CCN(C)CC2)cc1
[1]
  TGI: 10.2 µM
[2]
  GI50: 8.86 µM
  TGI: 16.7 µM
[3]
  GI50: 2.97 µM
  TGI: 11.4 µM
[4]
  GI50: 6.4 µM
  TGI: 15.1 µM
[5]
  GI50: 9.42 µM
  TGI: 19.5 µM
[6]
  GI50: 6.54 µM
  TGI: 15.5 µM
[7]
  GI50: 10.2 µM
  TGI: 19 µM
[8]
  GI50: 9.44 µM
  TGI: 17.4 µM
[9]
  GI50: 2.17 µM
  TGI: 8.36 µM
[10]
  GI50: 4.46 µM
  TGI: 13.5 µM
[11]
  GI50: 3.99 µM
  TGI: 13.3 µM
[12]
  GI50: 6.48 µM
  TGI: 16.3 µM
[13]
  GI50: 3.63 µM
  TGI: 13.7 µM
[14]
  GI50: 6.37 µM
  TGI: 13.8 µM
[15]
  GI50: 7.12 µM
  TGI: 14.7 µM
[16]
  GI50: 1.57 µM
  TGI: 6.24 µM
[17]
  GI50: 2.99 µM
  TGI: 11.9 µM
[18]
  GI50: 6.47 µM
  TGI: 14.2 µM
[19]
  GI50: 7.51 µM
  TGI: 15.5 µM
[20]
  GI50: 8.69 µM
  TGI: 17.3 µM
[21]
  GI50: 9.87 µM
  TGI: 23.6 µM
[22]
  GI50: 2.31 µM
  TGI: 11.1 µM
[23]
  GI50: 9.04 µM
  TGI: 16.9 µM
[24]
  GI50: 4.61 µM
  TGI: 19.1 µM
[25]
  GI50: 2.22 µM
  TGI: 8.7 µM
[26]
  GI50: 1.23 µM
  TGI: 4.07 µM
[27]
  GI50: 7.61 µM
  TGI: 15.3 µM
[28]
  GI50: 8.89 µM
  TGI: 17.9 µM
[29]
  GI50: 1.01 µM
  TGI: 1.9 µM
[30]
  GI50: 8.71 µM
  TGI: 17 µM
